According to patent EP0525836B1, “Assay method using novel NAD synthetase” (priority 1986, dated 1988):

target: T1, NAD synthetase (Geobacillus stearothermophilus ATCC 12980, UniProt A0ACH1E6M2); assay: Optimum concentration of metallic ion (Example 8); type: biochemical, Bacillus stearothermophilus H-804; details: 0.25 to 4 mM tested in reaction medium I without MgCℓ2
T1 sequence (A0ACH1E6M2 1-246): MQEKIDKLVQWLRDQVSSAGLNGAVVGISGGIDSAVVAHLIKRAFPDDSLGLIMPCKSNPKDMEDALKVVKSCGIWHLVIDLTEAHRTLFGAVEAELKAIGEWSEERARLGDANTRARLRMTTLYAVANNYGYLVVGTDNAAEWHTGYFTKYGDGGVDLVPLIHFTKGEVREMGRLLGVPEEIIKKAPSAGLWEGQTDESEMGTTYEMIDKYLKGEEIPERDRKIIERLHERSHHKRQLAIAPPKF
Experimental: Reaction medium I : • 50 mM Tris-HC ℓ buffer pH 8.0 • 10 mM KC ℓ • 2 mM ATP • 0.05 % bovine serum albumin • 0.5 mM deamide-NAD • 25 mM ( NH4 )2SO4
Reaction medium II: • 50 mM Tris-HC ℓ buffer pH 8.0 • 10 U diaphorase/m ℓ ( Toyo Jozo Co, Bacillus ) • 3 % ethanol • 10 U alcohol dehydrogenase/mℓ (Toyobo Co, yeast) • 0.025 % NTB • 0.1 % Triton X-100 • 10mM EDTA
To a reaction medium I in a test tube were added 0.25, 0.50, 0.75, 1, 2, 3 and 4 mM MgCℓ2 and 0.25, 0.50, 0.75, 1, 2, 3 and 4 mM MnCℓ2, respectively; each was then treated, after adding the present NAD synthetase solution, according to an assay method as previously illustrated.
Optimum concentration of MnCℓ2 is at 3mM.

Question: Which Optimum concentration does the source give for MnCℓ2 here?
Answer: 3 mM

target: T1, NAD synthetase; assay: Substrate specificity: ( NH4 ) 2SO4 replaced by amino acids in the enzyme activity assay; type: biochemical, Bacillus stearothermophilus H-804; details: ( NH4 ) 2SO4 25 mM replaced by the amino acid; activity on ( NH4 ) 2SO4 is 100
Experimental: In any assay method for enzyme activity hereinafter described, ( NH4 ) 2SO4 25 mM may be replaced by L-valine, L-homosirine, L-serine, L-alanine, L-methine, L-tyrosine, L-threonine, L-leucine, L-isolucine, L-arginine, L-phenylalanine, L-histidine, L-asparagine or L-glutamine, and the enzymatic activity measured.
(§1) • 50 mM Tris-HC ℓ buffer pH 8.0 • 1 mM K C ℓ • 5 mM MgC ℓ 2 • 0.05 % bovine serum albumin • 2 mM ATP • 0.5 mM deamide-NAD • 25 mM ( NH4 )2 SO4
(§2) • 50 mM Tris-HCℓ buffer pH 8.0 • 10 U diaphorase ( Toyo Jozo Co. from genus Bacillus) • 3 % ethanol • 10 U alcohol dehydrogenase/m ℓ ( Toyo Jozo, yeast ) • 0.025 % NTB ( nitrotetrazolium blue ) • 0.1 % Triton X-100 • 10 mM EDTA
(§3) Reaction medium I ( 0.3 mℓ ) in a test tube is pre-incubated at 37 °C, and the enzyme solution ( 5 µ ℓ ) is added thereto. The mixture is then incubated at 37 °C for exactly 10 minutes.
(§4) Reaction medium II ( 0.8 mℓ ) is added thereto to stop the reaction and simultaneously to start the cycling reaction at 37°C for exactly 5 minutes. After stopping the cycling reaction by adding 0.1 N-HC ℓ( 2.0 mℓ) , the absorbency at 550 nm is measured to calculate the enzyme activity. The enzyme activity is calculated by the following equation : NAD synthetase activity ( mU/ m ℓ ) = (ΔA550)/(ΔS550)x(1.0)/(0.005)x(f)/(10) [formula] wherein ΔA: absorbency of specimen, ΔS: absorbency of standard solution ( 0.1 mM NAD ), 0.005: specimen volume ( mℓ ) 10 : reaction time, f : dilution ration.

Question: For ammonium sulfate [( NH4 ) 2SO4], which “Relative activity of the enzyme” value is on record?
Answer: 100

same assay, conditions: ( NH4 ) 2SO4 25 mM replaced by the amino acid; activity on ( NH4 ) 2SO4 is 100; read-out: Relative activity of the enzyme

Question: For `C[C@H](N)C(=O)O` [L-alanine], which activity at 25000 µM is on record?
Answer: 0%

Question: Which activity at 25000 µM does the source give for `N=C(N)NCCC[C@H](N)C(=O)O` [L-arginine] here?
Answer: 0%

Question: For `NC(=O)C[C@H](N)C(=O)O` [L-asparagine], which activity at 25000 µM is on record?
Answer: 0%

Question: For `NC(=O)CC[C@H](N)C(=O)O` [L-glutamine], which activity at 25000 µM is on record?
Answer: 0%

Question: With `N[C@@H](Cc1c[nH]cn1)C(=O)O` [L-histidine] as the compound, how does the activity at 25000 µM read?
Answer: 0%

Question: For `N[C@@H](CCO)C(=O)O` [L-homosirine], which activity at 25000 µM is on record?
Answer: 0%

Question: For `CC[C@H](C)[C@H](N)C(=O)O` [L-isolucine], which activity at 25000 µM is on record?
Answer: 0%

Question: For `CC(C)C[C@H](N)C(=O)O` [L-leucine], which activity at 25000 µM is on record?
Answer: 0%

Question: Which activity at 25000 µM does the source give for `CSCC[C@H](N)C(=O)O` [L-methine] here?
Answer: 0%

Question: Which activity at 25000 µM does the source give for `N[C@@H](Cc1ccccc1)C(=O)O` [L-phenylalanine] here?
Answer: 0%

Question: With `N[C@@H](CO)C(=O)O` [L-serine] as the compound, how does the activity at 25000 µM read?
Answer: 0%

Question: Which activity at 25000 µM does the source give for `C[C@@H](O)[C@H](N)C(=O)O` [L-threonine] here?
Answer: 0%

Question: Which activity at 25000 µM does the source give for `N[C@@H](Cc1ccc(O)cc1)C(=O)O` [L-tyrosine] here?
Answer: 0%

Question: For `CC(C)[C@H](N)C(=O)O` [L-valine], which activity at 25000 µM is on record?
Answer: 0%

target: T1, NAD synthetase; assay: biochemical; type: biochemical, Bacillus stearothermophilus H-804; details: 5 mM in reaction medium I
Experimental: In the enzyme activity assay, each metallic ion ( 5 mM ), EDTA ( 20 mM ) or each surface active agent ( 0.1 % ) in Table 1 is added separately to the reaction medium I, and the enzyme activity is measured. […]
as §1, §2, §3, §4

Question: Which “Effect on enzyme activity” value does the source give for NiCℓ2 here?
Answer: inhibited

same assay, conditions: 20000 µM

Question: With `O=C(O)CN(CCN(CC(=O)O)CC(=O)O)CC(=O)O` [EDTA, reference compound] as the compound, how does the “Effect on enzyme activity” value read?
Answer: no activity

same assay, conditions: metallic ion 5 mM added to reaction medium I, which contains MgCℓ2 5 mM; no addition = 100; 10 min

Question: For AℓCℓ3, which Relative activity is on record?
Answer: 73.4%

Question: Which Relative activity does the source give for BaCℓ2 here?
Answer: 89.5%

Question: With CaCℓ2 as the compound, how does the Relative activity read?
Answer: 48.4%

Question: Which Relative activity does the source give for CsCℓ here?
Answer: 100%

Question: For FeCℓ3, which Relative activity is on record?
Answer: 88.4%

Question: Which Relative activity does the source give for KNO3 here?
Answer: 99.2%

Question: With LiCℓ as the compound, how does the Relative activity read?
Answer: 100%

Question: For MnCℓ2, which Relative activity is on record?
Answer: 54.0%

Question: With NaCℓ as the compound, how does the Relative activity read?
Answer: 102.4%

Question: For NaN3, which Relative activity is on record?
Answer: 102.4%

Question: For NaNO3, which Relative activity is on record?
Answer: 96.8%

Question: For NiCℓ2, which Relative activity is on record?
Answer: 7.3%

same assay, conditions: read-out: Relative activity

Question: Which activity at 20000 µM does the source give for `O=C(O)CN(CCN(CC(=O)O)CC(=O)O)CC(=O)O` [EDTA, reference compound] here?
Answer: 0%

same assay, conditions: surface active agent 0.1 % added to reaction medium I, which contains MgCℓ2 5 mM; no addition = 100

Question: With Nonidet P-40 as the compound, how does the Relative activity read?
Answer: 103.9%

Question: For “iso-octyl phenoxy polyethyloxy ethanol [Triton X-100]”, which Relative activity is on record?
Answer: 109.6%

target: NAD synthetase ( EC 6.3.1.5 ) (Escherichia coli, UniProt P18843); assay: not given; details: read-out: km-value, literature value; cited from earlier work
Sequence (P18843 whole entry): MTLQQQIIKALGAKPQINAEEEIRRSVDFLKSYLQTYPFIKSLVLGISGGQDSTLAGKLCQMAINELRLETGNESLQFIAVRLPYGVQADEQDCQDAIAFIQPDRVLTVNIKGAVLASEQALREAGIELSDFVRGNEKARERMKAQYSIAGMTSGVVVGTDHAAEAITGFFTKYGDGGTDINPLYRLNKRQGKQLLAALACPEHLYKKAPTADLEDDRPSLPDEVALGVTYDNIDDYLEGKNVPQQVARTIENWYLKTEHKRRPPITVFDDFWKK

Question: With `NC(=O)CC[C@H](N)C(=O)O` [L-glutamine] as the compound, how does the Km read?
Answer: 16 mM
